In publication PMC8102702, “Azithromycin Exhibits Activity Against Pseudomonas aeruginosa in Chronic Rat Lung Infection Model” (Frontiers in Microbiology, 2021):
Values after ≈ are worked out from the molar mass of the structure shown. Like-named read-outs stand apart in the source and are kept apart here.

Columns and labels:
[1] = test system: pelA promoter-lacZ in recombinant P. aeruginosa G2; experiment: β-galactosidase activity of pel promoter-lacZ transcriptional fusion; type: cell-based, Pseudomonas aeruginosa
Procedure: To understand the molecular mechanism of biofilm inhibition, a recombinant mutant P. aeruginosa G2-containing promoterless lacZ gene under promoter control of pelA was gifted to us by Prof. Kilter ([Sakuragi and Kolter, 2007]). The β-galactosidase activity was performed in the absence and presence of different concentrations of azithromycin and levofloxacin, as described earlier ([Sakuragi and Kolter, 2007]).

[2] = test system: P. aeruginosa G2; experiment: MIC; type: cell-based; conditions: Pseudomonas aeruginosa
[3] = test system: P. aeruginosa PAO1 biofilm; experiment: In vitro biofilm formation inhibition, crystal violet, 96-well plate; type: cell-based; conditions: Pseudomonas aeruginosa; P. aeruginosa PAO1, 24 h exposure, LB broth with 0.2% glucose; read-out: biofilm preventive concentration (BPC50)
Procedure: The effect of azithromycin and clindamycin on P. aeruginosa biofilm formation was assessed as described previously ([Sharma et al., 2009]; [Barman et al., 2016]; [Kumar et al., 2019]). Briefly, the overnight-grown culture of P. aeruginosa PAO1 in TSB was pelleted and resuspended in Luria-Bertani broth containing 0.2% glucose (10^7 CFU/ml). The bacterial suspension was spiked with different concentrations (16-0.015 μg/ml) of azithromycin or clindamycin in 96-well plates and incubated at 26 ± 2°C. The effects of azithromycin and clindamycin on inhibition of biofilm formation were assayed after 24 h of exposure. The wells were emptied and washed three times with phosphate-buffered saline (PBS; pH 7.3), and the adherent biofilm was stained with 200 μl of 1% crystal violet for 30 min and rinsed with distilled water. The adherent biofilm in the wells was solubilized with 200 μl of 30% acetic acid, and the optical density at 600 nm (OD600) was measured to quantify the formed biofilms. Each experiment was performed thrice, and the mean percent inhibition and standard deviations were calculated. The relative inhibition of biofilms, expressed as a mean percentage, was determined using the following formula: Percentinhibition=100-{([…]-controlwell)×100}

[4] = test system: pre-formed biofilm of P. aeruginosa PAO1; experiment: Activity on pre-formed biofilm (eradication), crystal violet; type: cell-based; conditions: Pseudomonas aeruginosa; pre-formed 24 h biofilm of P. aeruginosa PAO1, 24 h exposure; read-out: minimum biofilm eradication concentration (MBEC50)
Procedure: The efficacy of azithromycin was also evaluated on a pre-formed biofilm of P. aeruginosa PAO1 to assess the therapeutic or eradicative effect of azithromycin as described earlier ([Macia et al., 2014]). The bacterial suspension was prepared as described above and inoculated at 200 μl/well in a 96-well plate. After 24 h of incubation, the wells were emptied and washed with PBS and then spiked with different concentrations (16–0.015 μg/ml) of azithromycin prepared in LB broth containing 0.2% glucose. The plate was further incubated for 24 h, and the effect of azithromycin was assessed as described above.

[5] = test system: P. aeruginosa PA-14 planktonic cells; experiment: Time-kill kinetic study, planktonic cells; type: cell-based, Pseudomonas aeruginosa; conditions: P. aeruginosa PA-14, LB media
Procedure: (§1) To further evaluate the effect of azithromycin on planktonic cells and biofilm formation, a time-kill kinetic study was performed. Briefly, 10 ml of LB broth containing 0.2% glucose and a sterile 2-cm-long piece of the catheter were pre-warmed at 26 ± 2°C in reaction tubes, and the different concentrations of azithromycin (2 or 16 μg/ml) were added to tubes. The bacterial inoculum of P. aeruginosa PA-14 was prepared as described above and added to the tubes to achieve a final inoculum of ∼1 × 10^5 CFU/ml. The tubes were incubated at 26 ± 2°C. The planktonic cell counts were determined at various time-points by serial dilution plating onto a trypticase soy agar plate. After 24 h of incubation, the catheter pieces from each tube were removed, non-adherent bacteria were washed from the catheter pieces, and the number of CFU embedded in biofilm per catheter was determined as described earlier ([Kumar et al., 2016], [2019]). The experiment was performed in triplicate, and the mean log10 killing of planktonic cells and biofilm inhibition were calculated for each concentration. To further assess biofilm formation in the absence (drug-free control) or presence of azithromycin, the catheter pieces were also sectioned and processed for scanning electron microscopy (SEM).

[6] = test system: P. aeruginosa PA-14 biofilm; experiment: Solid-surface biofilm formation on catheter piece (CFU, SEM); type: cell-based, Pseudomonas aeruginosa; conditions: P. aeruginosa PA-14, 24 h, azithromycin 2 or 16 μg/ml
Procedure: as §1

[7] = test system: P. aeruginosa PA-14; experiment: Chronic rat lung (biofilm) infection model, lung bacterial load; type: in vivo, Sprague-Dawley rats; conditions: 75 mg/kg PO, q24h for 4 days, started 3 days post-infection; lungs 22 h after last dose
From the text: Specific pathogen-free female Sprague–Dawley (SD) rats, weighing 200 ± 20 g (age 8 weeks), were used for the study. The rats were procured from Vivo Biotech Pvt. Ltd., Hyderabad, India. The animals were housed in a pathogen-free animal facility and allowed 5 days of acclimatization in the study room before initiating the experiment. Feed and water were provided ad libitum during acclimatization and the study periods. All animal studies were approved by the institutional animal ethics committee. The animal studies were conducted under the strict guidelines of the committee for the Purpose of Control and Supervision of Experiments on Animals, Ministry of Environment, Forests and Climate Change, New Delhi, Government of India, and under the supervision of the institutional committee.
To determine the in vivo efficacy of azithromycin, a chronic biofilm model of P. aeruginosa was established in SD rats, which mimic the human chronic infection ([Hoover et al., 2017]; [Chawanpaiboon et al., 2019]). A semisolid 0.25% w/v agar beads suspension was prepared and autoclaved a day before the in vivo experiment and stored overnight at 4°C. […] The rats were then euthanized 22 h after the last dose, and the lungs’ bacterial load was determined by plating diluted lung homogenates on MHA.

[8] = Pharmacokinetics in plasma and lung ELF of P. aeruginosa-infected rats; conditions: rat, in vivo, po, 75 mg/kg; for Kp: Sprague-Dawley, 75 mg/kg PO, infected rats
Procedure: The concentrations of azithromycin were assessed in the plasma and lung epithelial lining fluid (ELF) of the rats infected with P. aeruginosa PA-14. Intratracheal infection in rats was performed as described above. A single dose of 75 mg/kg of azithromycin was administered orally through gavage. Blood and broncho-alveolar lavage (BAL) fluid (with 2 ml of normal saline wash) were collected at different time-points up to 24 h post-dose from each animal by gross dissection. For the collection of BAL, 2 ml of sterile cold PBS was infused into the animal through the trachea and into the bronchial cavity and aspirated out. Plasma was harvested from blood samples by centrifugation. The azithromycin concentrations in plasma and BAL samples were determined using liquid chromatography with tandem mass spectrometry. The apparent volume of ELF (VELF) in BAL fluid was determined by the urea dilution method using the urea assay kit from BioChain (Hayward, CA). The concentration of azithromycin in ELF (CELF) was determined as
where CBAL is the measured concentration of azithromycin in BAL fluid.

[9] = test system: QS molecule (3-O-C12 HSL) of P. aeruginosa; experiment: QS molecule in epithelial lining fluid of infected rats; type: in vivo; conditions: azithromycin treated rats vs placebo control, 7 days post-infection

Row | SMILES | effect on β-galactosidase activity ([1]; P. aeruginosa G2, sub-MIC concentrations) | MIC [2] [µg/mL] | IC50 [3] [µg/mL] | IC50 [4] [µg/mL] | reduction in planktonic cell counts as compared to the drug-free control ([5]; 6 h) [log10] | effect on planktonic cell counts ([5]; 24 h post-incubation) | solid-surface biofilm formation on catheter pieces [6] | IC50 ([1]; Pseudomonas aeruginosa, read-out: inhibition of β-galactosidase activity, IC50) [µg/mL] | reduction in bacterial counts as compared to the placebo control [7] [log10] | Kp ([8]; read-out: lung ELF/plasma ratio of AUCinf) | Kp ([8]; read-out: lung ELF/plasma ratio of Cmax) | Cmax [8] [ng/mL] | Tmax [8] [h] | level of QS molecules in the ELF [9]
1 | C[C@H]1COc2c(N3CCN(C)CC3)c(F)cc3c(=O)c(C(=O)O)cn1c23 [levofloxacin] | did not influence | 0.001 (≈ 0.00277 µM) | – | – | – | – | – | – | – | – | – | – | – | –
2 | CC[C@H]1OC(=O)[C@H](C)[C@@H](O[C@H]2C[C@@](C)(OC)[C@@H](O)[C@H](C)O2)[C@H](C)[C@@H](O[C@@H]2O[C@H](C)C[C@H](N(C)C)[C@H]2O)[C@](C)(O)C[C@@H](C)CN(C)[C@H](C)[C@@H](O)[C@]1(C)O [azithromycin] | – | > 0.032 | 0.122 (≈ 0.163 µM) | 7.49 (≈ 10 µM) | 1.86 | no effect | no solid-surface biofilm formed | 0.17 (≈ 0.227 µM) | 1.67 | 86 | 81 | 950 ± 300 | 2 | comparatively reduced level
